Measured values: patent publication US12564609B2, “Hematopoietic stem cell engraftment with a combination of agents” (The Board of Trustees of the Leland Stanford Junior …, priority 2020, dated 2026)

Key:
[1] = test system: mouse Lin−Sca1+c-Kit+CD48− cells; assay: In vitro HSC culture, cell counting and live/dead viability assay (mouse); assay type: cell-based
Method: (§1) A. Schematic of treatment protocol. C57BL/6 mice were injected with three different doses of AZA (1.25, 2.5 and 5 mg/kg/d) for 3 days. 24 h after last AZA injection BM was analyzed for HSC-depletion and Ki67 intracellular protein expression. B. Overlay histogram of Ki67 intracellular protein expression in LT-HSC (gated from live, Lin^−Sca1^+c-Kit^+CD150^+CD48^− cells) in mice treated with AZA 1.25 mg/kg, 2.5 mg/kg and 5 mg/kg/d for 3 consecutive days. C. Mean fluorescence intensity (MFI) of Ki67 intracellular protein expression in LT-HSC, ST-HSC, MPP2, MPP3/4 and myeloid progenitors (MP). Data were pooled from 2 independent experiments and represent mean±SD (n=7). Statistics were calculated Mann-Whitney test (*P<0.05; **P<0.01; ***P<0.001). […] After 48 h % live/dead cells was assessed by using EarlyTox Live/Dead Assay Kit. E. Proliferation curves of FACS-sorted mouse Lin^−Sca1^+c-Kit^+CD48^− in the presence of indicated concentrations of AZA (left) and cell viability as assessed by % of Calcein AM positive cells after 48 h of cell culture (right). […] Statistics were calculated with Mann-Whitney test (*P<0.05; **P<0.01; ***P<0.001). F. Proliferation curves of FACS-sorted human Lin^−CD34^+CD38^− cells in the presence of indicated concentrations of AZA (left) and cell viability as assessed by % of Calcein AM positive cells after 48 h of cell culture (right). […]

[2] = test system: human Lin−CD34+CD38− cells; assay: In vitro HSC culture, cell counting and live/dead viability assay (human); assay type: cell-based
Method: as §1

[3] = AZA 0.1, 0.5 and 1 μg/ml at baseline and 24 h, 48 h culture with SCF and TPO
[4] = AZA concentrations 0.1 μg/ml, 48 h

Nc1ncn([C@@H]2O[C@H](CO)[C@@H](O)[C@H]2O)c(=O)n1 [AZA, 5-Azacytidine]
number of cells in culture [1, 3]: reduced the number of cells in a dose dependent manner | cell viability by Calcein AM [1, 4]: significant decrease in cell viability | number of cells in culture [2, 3]: reduced the number of cells in a dose dependent manner | cell viability by Calcein AM [2, 4]: significant decrease in cell viability
